Where two headings read alike, the source gives them in different places.
Assay: Solubility in fluorine-containing organic solvent 1,3-bis(trifluoromethyl)benzene, visually measured
Procedure: The solubility of the fluorine-containing boronic acid ester compound [A] in 1,3-bis(trifluoromethyl)benzene, which was a fluorine-containing organic solvent used in Reference Example 3, described later, was 3.0 g/10 ml·solvent. Here, the solubility was determined in such a manner that the compound was added and stirred in 10 ml of said fluorine-containing organic solvent at 25° C., and then the maximum amount of addition sufficient to make the solution homogeneous was visually measured.
From this fact, a high solubility in a fluorine-containing organic solvent was confirmed.

[1] = 10 ml solvent, stirred at 25° C., maximum amount of addition giving a homogeneous solution, visually measured

Row | SMILES | solubility in 1,3-bis(trifluoromethyl)benzene [1] | also measured
1 | OB(O)c1ccc(B(O)O)cc1 [1,4-benzene diboronic acid] | insoluble | –
2 | CC1(C)OB(c2ccc(B3OC(C)(C)C(C)(C)O3)cc2)OC1(C)C [1,4-bis(4,4,5,5-tetramethyl-1,3,2-dioxaborolan-2-yl)benzene] | – | solubility in 1,3-bis(trifluoromethyl)benzene: 0.17 g/10 ml·solvent
3 | CN(C(=O)C(F)(OC(F)(F)C(F)(F)C(F)(F)F)C(F)(F)F)c1cc(B2OC(C)(C)C(C)(C)O2)cc(B2OC(C)(C)C(C)(C)O2)c1 (stereo not shown) [compound [A]] | 3.0 g/10 ml·solvent | –
4 | CN(C(=O)C(F)(OC(F)(F)C(F)(OC(F)(F)C(F)(OC(F)(F)C(F)(F)C(F)(F)F)C(F)(F)F)C(F)(F)F)C(F)(F)F)c1cc(B2OC(C)(C)C(C)(C)O2)cc(B2OC(C)(C)C(C)(C)O2)c1 (stereo not shown) [compound [B]] | – | solubility in a fluorine-containing organic solvent (5 g added to 10 ml of 1,3-bis(trifluoromethyl)benzene): a homogeneous solution was formed

— patent publication US8044221B2, “Fluorine-containing boronic acid ester compound and method for producing the same” (Unimatec Co., Ltd., priority 2008, dated 2011)
